Data on three molecules can be found in patent publication US7514432B2, “Compounds and methods of treating cell proliferative diseases, retinopathies and arthritis” (Exonhit Therapeutics SA, priority 2003, dated 2009).

In general, IC50 refers to the point on the concentration scale where inhibition reaches its midpoint.

Series [1] relates to Primary Hepatocytes. As to the kind of experiment: Cell viability assay (MTT), primary hepatocytes. As to conditions: Hepatocyte, 10% FBS, 16-hours treatment, 1% DMSO. It counts as cell-based. Here is the method:
(§1) Table 15: 16-hour cell viability assay (MTT) in the presence of 10% Fetal Bovine Serum and 1% DMSO, in HCT116, MDA-MB-231, NIH3T3, HepG2 and primary hepatocytes. 5 10^4 to 10 10^4 cells were seeded in 48-well plates in growth medium containing 10% FBS, with or without various concentrations of test compounds. Data were analyzed and IC50s were calculated from dose-reponse curves using GraphPad Prism. Results summarized in the tables are mean±SEM of 1 to 2 independent experiments.
(§2) In order to determine a compound's effect on cell viability, microculture tetrazolium assays (MTT) were performed as described by Carmichael et al. (1996) with modifications. Four human tumoral cell lines, namely HCT116 colon adenocarcinoma, H460 lung carcinoma, MCF-7 and MDA-MB-231 breast carcinoma cell lines, DLD1 colorectal adenocarcinoma, HeLa adenocarcinoma, HepG2 hepatocellular carcinoma. 3 immortalized but non tumorigenic cell lines, namely NIH3T3 mouse fibroblasts (American Type Culture Collection) and primary hepatocytes (Biopredic international), cultured according to their recommendations together with Human Microvasculature Endothelial Cell line HMEC1 (National Center for Infectious Diseases). Briefly, cells were seeded in 48-well plates 24 hours before drug addition. Cells were treated with 0 to 200 μM (11 concentrations) of compound solubilized in DMSO, adjusting the final concentration of DMSO to 1% in the well. 16 hours, and three or six days after treatment, 0.5 mg/ml MTT (Sigma) was added to the medium and cells were incubated for 1-5 hours at 37° C. before solubilization of formazan crystals in 100% DMSO. Absorbance was measured using a spectrophotometer at a wavelength of 550 nm. Data was analyzed using the GraphPad Prism software (GraphPad Software, Inc.), and IC50 (dose leading to 50% cell death) was calculated from the dose-response curves.

For series [2], the system named is HepG2. As to the kind of experiment: Cell viability assay (MTT), HepG2. The format is cell-based. The conditions noted are these: Homo sapiens, 10% FBS, 16-hours treatment, 1% DMSO. Here is the method:
as §1, §2

Series [3] deals with Salmonella typhimurium TA 98 and TA 100 strains. As to the kind of experiment: Screening Ames test. As to conditions: with and without S9 mix; 10 to 5000 μg per plate. The text has this: The objective of this study was to evaluate the potential of the test items to induce reverse mutation in Salmonella Typhimurium (TA 98 and TA 100 strains). The bacterial reverse mutation test is able to identify substances that cause point mutations, by substitution, addition or deletion of one or a few DNA base-pairs. Mutagenic substances can induce reversion in histidine deficient strains which are then able to grow and form colonies in a histidine-limited medium, while non-reverted cannot. This test is performed in the absence and presence of a rat liver metabolising system (S9 mix). Three known mutagens are used to check sensitivity of test system: sodium azide, 2-nitrofluorene and 2-anthramine.
The dose levels per plate were of 10 to 5000 μg. A preliminary toxicity test was performed followed by the mutagenecity test per se.
Background: The Ames test uses bacterial strains that need an amino acid and regain growth without it when mutated back.

The test system of series [4] is MDA-MB-231. As to the kind of experiment: Cell viability assay (MTT), MDA-MB-231. The format is cell-based, human. The conditions noted are these: 1% DMSO. Summed up:
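Cells seeded 24 h before treatment with 0–200 μM compound (11 concentrations, 1% DMSO final) in 10% or 0.5% FBS medium; exposure 16 h, 3 or 6 days, fed every 3 days in 6-day runs. MTT 0.5 mg/ml read at 550 nm; IC50 from dose-response curves, mean±SEM.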

The mark [5] stands for this setting: Homo sapiens, MDA-MB-231, 16 h, 10% FBS, 16-hours treatment, read-out: IC50 μM, MDA-MB-231.
Where [6] appears, read: Homo sapiens, MDA-MB-231, 72 h, 10% FBS, 3-day treatment, read-out: IC50 μM, MDA-MB-231.
Where [7] appears, read: Homo sapiens, MDA-MB-231, 144 h, 0.5% FBS, 6-day treatment, read-out: IC50 (μM), MDA-MB-231.

Molecules are shown by their SMILES. Like-named read-outs stand apart in the source and are kept apart here.

As to `Cl.Cl.O=c1cc(CN2CCOCC2)occ1OCCCCCSc1ccnc2cc(C(F)(F)F)ccc12` [EHT 1864, 5-(5-(7-(Trifluoromethyl)quinolin-4-ylthio)pentyloxy)-2-(morpholinomethyl)-4H-pyran-4-one dihydrochloride], the IC50 in series [1] is more than 50 µM; in series [2], 60 µM; in series [4] (10% FBS, 6-day treatment, dihydrochloride, read-out: IC50 μM, MDA-MB-231) it was 9.3 µM; in series [4] (setting [5]) it was 126 µM; in series [4] (setting [6]), 9.9 µM; in series [4] (setting [7]) it was 6.3 µM. The IC50 in series [4] (Homo sapiens, MDA-MB-231, 144 h, 10% FBS, 6-day treatment, read-out: IC50 μM, MDA-MB-231) is less than 9 µM. In addition, the mutagenic activity result in series [3] is listed as “did not show any mutagenic activity”.

In the case of `CN1CCN(Cc2cc(=O)c(OCCCCCSc3ccnc4cc(C(F)(F)F)ccc34)co2)CC1.Cl.Cl.Cl` [EHT 9241, 5-(5-(7-(Trifluoromethyl)quinolin-4-ylthio)pentyloxy)-2-((4-methylpiperazin-1-yl)methyl)-4H-pyran-4-one trihydrochloride], the IC50 in series [1] amounted to 29.6 µM; in series [2] it was 11.3 µM; in series [4] (10% FBS, 6-day treatment, trihydrochloride, read-out: IC50 μM, MDA-MB-231) it was 5.3 µM; in series [4] (setting [5]), 48.4 µM; in series [4] (setting [6]) it was 11.1 µM; in series [4] (setting [7]), 3.8 µM. For the same molecule, the mutagenic activity result in series [3] is “did not show any mutagenic activity”.

As to `Cl.Cl.Cl.O=c1cc(CN2CCNCC2)occ1OCCCCCSc1ccnc2cc(C(F)(F)F)ccc12` [EHT 8560, 5-(5-(7-(Trifluoromethyl)quinolin-4-ylthio)pentyloxy)-2-((piperazin-1-yl)methyl)-4H-pyran-4-one trihydrochloride], the half-inhibitory concentration (IC50) was 17.3 µM in series [1], 9.75 µM in series [2], 9 µM in series [4] (setting [6]) and 4 µM in series [4] (setting [7]). Further, the mutagenic activity entry in series [3] was “did not show any mutagenic activity”.
